For assay [1], the system named is TNF-α. Put plainly: In vivo screening model of LPS induced TNF-α response in mice. The settings on record: Mus musculus, po, 1 mg/kg p.o., 1 hour prior to LPS, plasma TNF-α 80-90 minutes after LPS, read-out: In vivo inhibition of LPS induced TNF-α production (in %). Here is the method:
In Vivo Screening Model of LPS Induced TNF-α Response in Mice
To study the effect of compounds of the present invention in vivo, an in vivo screening model of LPS induced TNF-α response in mice was set up as follows: Groups of 6 mice (C3H/HeN, female, about 8 weeks (20 g), Bomholtgaard) were dosed with test compounds in suspension vehicle 1 hour prior to LPS administration (LPS from E. coli 055:B5, L-4005, Sigma). At time 0, the mice were dosed ip with 1.0 mg LPS/kg. After anesthetization with Hypnorm/Dormicum, the mice were bled from the periorbital venous plexus 80-90 minutes after LPS administration. The blood samples were sampled in EDTA stabilised tubes and centrifuged at 4000 rpm for 10 minutes at 4° C. The plasma level of TNF-α was analysed by ELISA. Compound 156 of WO 98/32730 was used as reference compound. The plasma level of TNF-α was determined using a sandwich ELISA. Microtiter plates were coated with a monoclonal antibody against mouse TNF-α, washed and blocked with a casein buffer. Samples of mouse TNF-α recombinant standards were added to the wells of the microtiter plates and incubated. All standards were tested in triplicate, all plasma samples in single. After sample and standard incubation, the plates were washed and incubated with biotinylated polyclonal secondary antibody against mouse TNF-α and washed. Enzyme conjugate was added to all wells and incubated. Substrate was added and the enzyme/substrate reaction stopped after 15 minutes at room temperature with 1M H2SO4. The colour development (OD) was measured at 450 nm on an ELISA reader and the background OD at 620 nm was subtracted. […] The results of the tested compounds are indicated as a percentage inhibition compared to an LPS treated control group. Compounds were tested at 1 mg/kg (p.o.). The Mann-Whitney test was used to compare drug treated groups to the LPS treated control group (p<0.05).

For assay [2], the system named is TNF-α. Description: Inhibition of TNF-α secretion in LPS stimulated peripheral blood mononuclear cells. Type of assay: cell-based. The settings on record: LPS stimulated human PBMC, 18 hours, ELISA; read-out: The median inhibition concentration (IC50, nM) of TNF-α. Here is the method:
(§1) To study the effect of compounds of the present invention in vitro, the inhibition of IL-1β and TNF-α secretion was determined using the following procedure:
(§2) Cytokine production was measured in the media from lipopolysaccharide (LPS) stimulated peripheral blood mononuclear cells. The mononuclear cells were isolated from human peripheral blood by Lymphoprep® (Nycomed, Norway) fractionation and suspended in RPMI 1640 (growth medium) with foetal calf serum (FCS, 2%), at a concentration of 5×10^5 cells/ml. The cells were incubated in 24-well tissue culture plates in 1 ml aliquots. Test compounds were dissolved in dimethylsulfoxide (DMSO, 10 mM) and were diluted with the medium. Compounds were added to the cells for 30 minutes, then LPS ([…] final concentration) was added. The plates were incubated for 18 hours, and the concentration of IL-1β and TNF-α in the medium was determined by enzyme-linked immunosorbent assays. The median inhibitory concentrations (IC50) of the compounds were calculated.
In general terms: In an ELISA, binding on a coated surface is turned into a signal by an enzyme label.

In a further assay the test system is IL-1β. Put plainly: Inhibition of IL-1β secretion in LPS stimulated peripheral blood mononuclear cells. The format is cell-based. The settings on record: LPS stimulated human PBMC, 18 hours, ELISA; read-out: The median inhibition concentration (IC50, nM) of IL-1β. Here is the method:
as §1, §2

As usually defined, the inhibition in vivo is the change of the read-out against control, counted positive when it falls. On to `Cc1ccc(-c2cn(CCCO)nn2)cc1C(=O)c1ccc(Nc2ccc(F)cc2F)cc1Cl` [Compound 104, [2-Chloro-4-(2,4-difluoro-phenylamino)-phenyl]-{5-[1-(3-hydroxy-propyl)-1H-[1,2,3]triazol-4-yl]-2-methyl-phenyl}-methanone], for which the inhibition in vivo at 1 mg/kg in the assay with TNF-α [1] turned out to be 90%. Further, the IC50 in the assay on TNF-α [2] came to 0.5 nM; in the assay with IL-1β, 0.6 nM.

For the compound `Cc1ccc(-c2cn(CC3COC(C)(C)O3)nn2)cc1C(=O)c1ccc(Nc2ccc(F)cc2F)cc1Cl` (centres unmarked) [Compound 105, [2-Chloro-4-(2,4-difluoro-phenylamino)-phenyl]-{5-[1-(2,2-dimethyl-[1,3]dioxolan-4-ylmethyl)-1H-[1,2,3]triazol-4-yl]-2-methyl-phenyl}-methanone], in the assay with TNF-α [2], the IC50 is 1.4 nM.

In the case of `Cc1ccc(-c2cn(CC(O)CO)nn2)cc1C(=O)c1ccc(Nc2ccc(F)cc2F)cc1Cl` (centres unmarked) [Compound 106, [2-Chloro-4-(2,4-difluoro-phenylamino)-phenyl]-{5-[1-(2,3-dihydroxy-propyl)-1H-[1,2,3]triazol-4-yl]-2-methyl-phenyl}-methanone], the inhibition in vivo at 1 mg/kg in the assay with TNF-α [1] stood at 98%. Also, the IC50 in the assay with TNF-α [2] stood at 0.5 nM; in the assay with IL-1β, 0.7 nM.

Turning to `Cc1ccc(-c2cn(CC(N)=O)nn2)cc1C(=O)c1ccc(Nc2ccc(F)cc2F)cc1Cl` [Compound 107, 2-(4-{3-[2-Chloro-4-(2,4-difluoro-phenylamino)-benzoyl]-4-methyl-phenyl}-[1,2,3]triazol-1-yl)-acetamide], the inhibition in vivo at 1 mg/kg in the assay with TNF-α [1] came to 91%. Further, the figures for the IC50 with TNF-α [2] and in the assay with IL-1β were 0.5 nM and 0.8 nM, respectively.

In the case of `CCOC(=O)Cn1cc(-c2ccc(C)c(C(=O)c3ccc(Nc4ccc(F)cc4F)cc3Cl)c2)nn1` [Compound 110, (4-{3-[2-Chloro-4-(2,4-difluoro-phenylamino)-benzoyl]-4-methyl-phenyl}-[1,2,3]triazol-1-yl)-acetic acid ethyl ester], the IC50 turned out to be 3.6 nM with TNF-α [2] and 6.3 nM in the assay with IL-1β.

Consider `Cc1ccc(-c2cn(CC(=O)NC(C)(C)CO)nn2)cc1C(=O)c1ccc(Nc2ccc(F)cc2F)cc1Cl` [Compound 113, 2-(4-{3-[2-Chloro-4-(2,4-difluoro-phenylamino)-benzoyl]-4-methyl-phenyl}-[1,2,3]triazol-1-yl)-N-(2-hydroxy-1,1-dimethyl-ethyl)-acetamide], for which the IC50 in the assay on TNF-α [2] was found to be 0.6 nM; in the assay on IL-1β, 6.3 nM.

Regarding `Cc1ccccc1Nc1ccc(C(=O)c2cc(-n3cc(CCO)nn3)ccc2C)c(Cl)c1` [Compound 117, (2-Chloro-4-o-tolylamino-phenyl)-{5-[4-(2-hydroxy-ethyl)-[1,2,3]triazol-1-yl]-2-methyl-phenyl}-methanone], the IC50 with TNF-α [2] was found to be 1.1 nM; in the assay on IL-1β it was 1.6 nM.

As for `Cc1ccc(-n2cc(CCO)nn2)cc1C(=O)c1ccc(Nc2ccc(F)cc2Cl)cc1Cl` [Compound 118, [2-Chloro-4-(2-chloro-4-fluoro-phenylamino)-phenyl]-{5-[4-(2-hydroxy-ethyl)-[1,2,3]triazol-1-yl]-2-methyl-phenyl}-methanone], the results for the IC50 in the assay on TNF-α [2] and in the assay with IL-1β were 0.9 nM and 1.3 nM, respectively.

As to `COc1ccc(-c2cn(CCO)nn2)cc1C(=O)c1ccc(Nc2ccc(F)cc2F)cc1Cl` [Compound 120, [2-Chloro-4-(2,4-difluoro-phenylamino)-phenyl]-{5-[1-(2-hydroxy-ethyl)-1H-[1,2,3]triazol-4-yl]-2-methoxy-phenyl}-methanone], the IC50 worked out at 0.8 nM with TNF-α [2] and 5 nM in the assay on IL-1β.

On to `Cc1ccc(-n2cc(CCO)nn2)cc1C(=O)c1ccc(Nc2ccc(F)cc2F)cc1Cl` [Compound 128, [2-Chloro-4-(2,4-difluoro-phenylamino)-phenyl]-{5-[4-(2-hydroxy-ethyl)-[1,2,3]triazol-1-yl]-2-methyl-phenyl}-methanone], for which the inhibition in vivo at 1 mg/kg with TNF-α [1] came out at 95%. For the same compound, the IC50 in the assay on TNF-α [2] was 1 nM.

As to `Cc1ccc(-n2cc(C(C)(C)O)nn2)cc1C(=O)c1ccc(Nc2ccc(F)cc2F)cc1Cl` [Compound 129, [2-Chloro-4-(2,4-difluoro-phenylamino)-phenyl]-{5-[4-(1-hydroxy-1-methyl-ethyl)-[1,2,3]triazol-1-yl]-2-methyl-phenyl}-methanone], the inhibition in vivo at 1 mg/kg with TNF-α [1] came out at 83%. Further, in the assay with TNF-α [2], the IC50 was 1.4 nM.

On to `CC(=O)c1cn(-c2ccc(C)c(C(=O)c3ccc(Nc4ccc(F)cc4F)cc3Cl)c2)nn1` [Compound 130, 1-(1-{3-[2-Chloro-4-(2,4-difluoro-phenylamino)-benzoyl]-4-methyl-phenyl}-1H-[1,2,3]triazol-4-yl)-ethanone], for which the values for the IC50 with TNF-α [2] and with IL-1β were 0.6 nM and 1.3 nM, respectively.

Turning to `Cc1ccc(-n2cc(CCN)nn2)cc1C(=O)c1ccc(Nc2ccc(F)cc2F)cc1Cl` [Compound 136, {5-[4-(2-Amino-ethyl)-[1,2,3]triazol-1-yl]-2-methyl-phenyl}-[2-chloro-4-(2,4-difluoro-phenylamino)-phenyl]-methanone], the IC50 with TNF-α [2] stood at 1.3 nM; in the assay on IL-1β, 1.6 nM.

Consider `Cc1ccc(-n2cc(CNC(N)=O)nn2)cc1C(=O)c1ccc(Nc2ccc(F)cc2F)cc1Cl` [Compound 137, (1-{3-[2-Chloro-4-(2,4-difluoro-phenylamino)-benzoyl]-4-methyl-phenyl}-1H-[1,2,3]triazol-4-ylmethyl)-urea], for which the results for the IC50 in the assay on TNF-α [2] and in the assay on IL-1β were 0.3 nM and 1 nM, respectively.

As to `Cc1ccc(-n2cc(CCN3CCOCC3)nn2)cc1C(=O)c1ccc(Nc2ccc(F)cc2F)cc1Cl` [Compound 138, [2-Chloro-4-(2,4-difluoro-phenylamino)-phenyl]-{2-methyl-5-[4-(2-morpholin-4-yl-ethyl)-[1,2,3]triazol-1-yl]-phenyl}-methanone], the IC50 with TNF-α [2] was found to be 2 nM; with IL-1β it was 3.2 nM.

Regarding `Cc1ccc(-n2cc(CCN3CCN(C)CC3)nn2)cc1C(=O)c1ccc(Nc2ccc(F)cc2F)cc1Cl` [Compound 139, [2-Chloro-4-(2,4-difluoro-phenylamino)-phenyl]-(2-methyl-5-{4-[2-(4-methyl-piperazin-1-yl)-ethyl]-[1,2,3]triazol-1-yl}-phenyl)-methanone], the IC50 in the assay on TNF-α [2] was determined as 0.5 nM; with IL-1β it was 1.6 nM.

In the case of `CCN(CC)CCc1cn(-c2ccc(C)c(C(=O)c3ccc(Nc4ccc(F)cc4F)cc3Cl)c2)nn1` [Compound 140, [2-Chloro-4-(2,4-difluoro-phenylamino)-phenyl]-{5-[4-(2-diethylamino-ethyl)-[1,2,3]triazol-1-yl]-2-methyl-phenyl}-methanone], the IC50 in the assay on TNF-α [2] came out at 0.8 nM; in the assay on IL-1β, 2 nM.

As for `Cc1ccc(-n2cc(CCNCCO)nn2)cc1C(=O)c1ccc(Nc2ccc(F)cc2F)cc1Cl` [Compound 141, [2-Chloro-4-(2,4-difluoro-phenylamino)-phenyl]-(5-{4-[2-(2-hydroxy-ethylamino)-ethyl]-[1,2,3]triazol-1-yl}-2-methyl-phenyl)-methanone], the IC50 with TNF-α [2] and in the assay on IL-1β was 0.6 nM in each case.

`CCCNCCc1cn(-c2ccc(C)c(C(=O)c3ccc(Nc4ccc(F)cc4F)cc3Cl)c2)nn1` [Compound 142, [2-Chloro-4-(2,4-difluoro-phenylamino)-phenyl]-{2-methyl-5-[4-(2-propylamino-ethyl)-[1,2,3]triazol-1-yl]-phenyl}-methanone]: the IC50 in the assay with TNF-α [2] came out at 0.8 nM; in the assay on IL-1β it was 1 nM.

As to `Cc1cc(F)ccc1Nc1ccc(C(=O)c2cc(-n3cc(CCO)nn3)ccc2C)c(Cl)c1` [Compound 143, [2-Chloro-4-(4-fluoro-2-methyl-phenylamino)-phenyl]-{5-[4-(2-hydroxy-ethyl)-[1,2,3]triazol-1-yl]-2-methyl-phenyl}-methanone], the values for the IC50 in the assay with TNF-α [2] and in the assay with IL-1β were 1 nM and 4 nM, respectively.

Turning to `Cc1cc(Cl)ccc1Nc1ccc(C(=O)c2cc(-n3cc(CCO)nn3)ccc2C)c(Cl)c1` [Compound 145, [2-Chloro-4-(4-chloro-2-methyl-phenylamino)-phenyl]-{5-[4-(2-hydroxy-ethyl)-[1,2,3]triazol-1-yl]-2-methyl-phenyl}-methanone], the IC50 in the assay on TNF-α [2] was found to be 2 nM; with IL-1β, 5 nM.

The record behind these values is US8293772B2, “Triazole substituted aminobenzophenone compounds” (Leo Pharma A/S, priority 2004, dated 2012).
